Source: patent publication US20030083323A1, “Oral use of dehydroepiandrosterone and some of its derivatives as pigmentation regulators” (priority 2000, published 2003)
Where “and” joins values, the source holds several entries; their conditions need not be identical. Equal values may be shown once.

How the values were obtained:
human skin = experiment: Depigmenting power on the skin of DHEA administered orally, colorimetry b* (Minolta CR200 chromameter), randomized double-blind clinical study versus placebo; format: in vivo; settings: oral DHEA 50 mg per day, 12 months, healthy female volunteers 60 to 80 years old; p=0.006, Wilcoxon test
Experimental: The evaluation was carried out using a randomized double-blind clinical study on 140 individuals. The inclusion criteria were as follows: healthy female volunteers free of any severe pathological condition and 60 to 80 years old.
The treatment consisted, for 12 months, of a daily dose of 50 mg of DHEA, taken in the morning, in the form of a breakable tablet, for half the individuals, or of a placebo for the other half of the individuals.
The skin pigmentation is measured at the start of treatment (TO) and after 12 months (T12), by colorimetry using a Minolta CR200 chromameter (Minolta, 365, route de Saint-Germain 78424 Carrières sur Seine).
This machine describes the colors in a three-dimensional space, using the system of coordinates L, a* and b* and recommended by the CIE in 1976. In this system, L* expresses the luminance or clarity of the color (0 corresponding to black and 100 to white), a is the component for separation between green (negative) and red (positive) and b*, which varies from blue (negative) to yellow (positive) expresses the pigmentation of the skin. The latter parameter was used to evaluate the change in skin color during the treatment.
The machine is calibrated on a standard “white” (surface provided with the machine) at the beginning of each day of measurement and the calibration is controlled throughout the day. […]

[1] = tested on: hair (degree of canities); experiment: Effect of oral DHEA on canities, questionnaire at end of randomized double-blind clinical study versus placebo; format: in vivo, human; settings: oral DHEA 50 mg daily, 6 months
Experimental: The evaluation was carried out using a randomized double-blind clinical study on 140 individuals. The inclusion criteria were as follows: healthy male volunteers free of any severe pathological condition and 60 to 80 years old.
The treatment consisted, for 6 months, of a daily dose of 50 mg of DHEA, taken in the morning, in the form of a breakable tablet, for half the individuals, or of its placebo for the other half of the individuals.
At the end of the 6 months of treatment, the individuals answered a series of questions concerning the state of their hair and the effect of the treatment on various parameters, in particular regarding their degree of canities (improvement, worsening or no change in the number of white hairs).
The statistical analysis is performed with Wilcoxon tests.

[2] = healthy male volunteers 60 to 80 years old, total 64

With `C[C@]12CC[C@H](O)CC1=CC[C@@H]1[C@@H]2CC[C@]2(C)C(=O)CC[C@@H]12` [DHEA, dehydroepiandrosterone] the “skin pigmentation (b*) compared to the placebo group” value (human skin) was “significant decrease in pigmentation”, the “degree of canities: Improvement (number of individuals, number of white hairs decreased)” value [1, 2] was 5 and the “degree of canities: No change (number of individuals)” value [1, 2] was 59. For the same compound, the “degree of canities: Worsening (number of individuals)” value [1, 2] was “no individual experienced a worsening and 0” and the “overall effect on hair pigmentation versus placebo” value ([1]; difference between treatments significant, p=0.0094, Wilcoxon test) was “propigmenting effect on hair”.
